The values below come from US6943016B1, “Human adult astrocytes, their preparation and uses thereof” (Aventis Pharma S.A., priority 1999, dated 2005).

In the test the test system is human adult astrocytes. Briefly: TH activity in transduced human adult astrocytes (enzymatic assay of Reinhard et al.). The following applies: AdPGKtet hTH-1-infected astrocytes, doxycycline 10 ng/ml. The test is classed as cell-based. Here is the method:
The medium was renewed every second day.
Three, 7 and 14 days after infection, cells were harvested and processed to measure TH activity and evaluate L-Dopa production. TH activity of cell pellets was assayed as previously described (Reinhard et al. 1986). The production of L-Dopa was assessed after growing human astrocytes for 24 h in DMEM/F12 without FCS. Conditioned media was collected, and 0.5 ml aliquots were mixed with an alumina suspension (40 mg/ml) in 0.05 M Tris-HCl, pH 8.6. Each mixture was then continuously stirred for 10 min, washed with the Tris-HCl buffer, and the alumina finally collected by centrifugation (800 g, 5 min. 4° C.). Catechols adsorbed onto the alumina gel were eluted with 0.6 N perchloric acid (0.1 ml per sample), and the eluate was neutralized with 2 M potassium phosphate pH 7.4 (20 μl per sample). After centrifugation (30 000 g, 15 min, 4° C.), 10 μl aliquots of the cleared supernatant were injected into a high performance liquid chromatography column (Ultrasphere IP, 25 cm, 0.46 cm outer diameter, 5 μm) for the electrochemical quantification of L-Dopa, as described in detail elsewhere (Adrien et al., 1989).

The structures appear in SMILES notation.

On to `C[C@H]1c2cccc(O)c2C(=O)C2=C(O)[C@]3(O)C(=O)C(C(N)=O)=C(O)[C@@H](N(C)C)[C@@H]3[C@@H](O)[C@@H]21` [doxycycline], for which, for the setting “14 days post-infection”, the “decrease of TH activity in the presence of doxycycline” value was “at least 10 fold”. The “TH activity in doxycycline-treated cells” value (day 14) is recorded as 3,590 pmol/mg prot/h.
